Data taken from ChEMBL document CHEMBL4699440, “Comprehensive review on the anti-bacterial activity of 1,2,3-triazole hybrids” (Eur J Med Chem, 2019).

Tests used:
Proteus mirabilis = test: Antibacterial activity against Proteus mirabilis ATCC 35659 incubated for 24 hrs by microdilution method; format: functional
Staphylococcus aureus [1] = test: Antibacterial activity against Staphylococcus aureus ATCC 25923 incubated for 24 hrs by microdilution method; format: functional
Escherichia coli [2] = test: Antibacterial activity against Escherichia coli ATCC 25922 incubated for 24 hrs by microdilution method; format: functional
Candida albicans = test: Antifungal activity against Candida albicans ATCC 50193 incubated for 24 hrs by microdilution method; format: functional
Enterococcus faecalis [3] = test: Antibacterial activity against Enterococcus faecalis ATCC 29212 incubated for 24 hrs by microdilution method; format: functional
Pseudomonas aeruginosa [4] = test: Antibacterial activity against Pseudomonas aeruginosa ATCC 27853 incubated for 24 hrs by microdilution method; format: functional
Aspergillus brasiliensis = test: Antifungal activity against Aspergillus brasiliensis ATCC 16404 incubated for 24 hrs by microdilution method; format: functional
Bacillus cereus = test: Antibacterial activity against Bacillus cereus ATCC 10876 incubated for 24 hrs by microdilution method; format: functional
Enterococcus faecalis [5] = test: Antibacterial activity against Enterococcus faecalis ATCC 29212 after overnight incubation by CLSI M7-A9 based method; format: functional
Escherichia coli [6] = test: Antibacterial activity against Escherichia coli JM109 after overnight incubation by CLSI M7-A9 based method; format: functional
Escherichia coli [7] = test: Antibacterial activity against Escherichia coli ATCC 25922 after overnight incubation by CLSI M7-A9 based method; format: functional
Staphylococcus aureus [8] = test: Antibacterial activity against Staphylococcus aureus CIP 6525 after overnight incubation by CLSI M7-A9 based method; format: functional
Enterococcus faecalis [9] = test: Antibacterial activity against Enterococcus faecalis MTCC 439 incubated overnight by broth dilution technique; format: functional, organism-based
Escherichia coli [10] = test: Antibacterial activity against Escherichia coli ATCC 25922 incubated overnight by broth dilution technique; format: functional, organism-based
Salmonella enterica = test: Antibacterial activity against Salmonella enterica MTCC 3224 incubated overnight by broth dilution technique; format: functional, organism-based
Klebsiella pneumoniae = test: Antibacterial activity against Klebsiella pneumoniae ATCC 700603 incubated overnight by broth dilution technique; format: functional, organism-based
Streptococcus pneumoniae = test: Antibacterial activity against Streptococcus pneumoniae MTCC 655 incubated overnight by broth dilution technique; format: functional, organism-based
Pseudomonas aeruginosa [11] = test: Antibacterial activity against Pseudomonas aeruginosa MTCC 2453 incubated overnight by broth dilution technique; format: functional, organism-based
Pseudomonas aeruginosa [12] = test: Antibacterial activity against Pseudomonas aeruginosa 12 incubated for 20 hrs by agar dilution method; format: functional
Staphylococcus aureus [13] = test: Antibacterial activity against Staphylococcus aureus 209P JC1 incubated for 20 hrs by agar dilution method; format: functional
Escherichia coli [14] = test: Antibacterial activity against Escherichia coli NIHJ JC2 incubated for 20 hrs by agar dilution method; format: functional
Staphylococcus aureus [15] = test: Antibacterial activity against Staphylococcus aureus ATCC 9144 incubated for 24 hrs by broth dilution method; format: functional
Escherichia coli [16] = test: Antibacterial activity against Escherichia coli ATCC 25922 incubated for 24 hrs by broth dilution method; format: functional
Bacillus spizizenii = test: Antibacterial activity against Bacillus subtilis ATCC 6633 incubated for 24 hrs by broth dilution method; format: functional
Proteus vulgaris = test: Antibacterial activity against Proteus vulgaris ATCC […] incubated for 24 hrs by broth dilution method; format: functional

CCCCCCCCCCCCn1nnc(-c2n[nH]c(=S)n2N)c1-c1n[nH]c(=S)n1N
1 µg/mL: MIC (Proteus mirabilis) | MIC (Staphylococcus aureus [1]) | MIC (Escherichia coli [2]) | MIC (Candida albicans) | MIC (Enterococcus faecalis [3]) | MIC (Pseudomonas aeruginosa [4]) | MIC (Aspergillus brasiliensis) | MIC (Bacillus cereus)

CCCCCCCCn1nnc(-c2n[nH]c(=S)n2-c2ccccc2)c1-c1n[nH]c(=S)n1-c1ccccc1
2 µg/mL: MIC (Proteus mirabilis) | MIC (Staphylococcus aureus [1]) | MIC (Escherichia coli [2]) | MIC (Candida albicans) | MIC (Enterococcus faecalis [3]) | MIC (Pseudomonas aeruginosa [4]) | MIC (Aspergillus brasiliensis) | MIC (Bacillus cereus)

C[C@H](c1ccccc1)N(CC(N)=O)C(=O)CN(C(=O)CN(Cc1cn(CCN)n[n+]1C)C(=O)CN(C(=O)CN(C(=O)CNCc1cn(CCN)n[n+]1C)[C@H](C)c1ccccc1)[C@H](C)c1ccccc1)[C@H](C)c1ccccc1
> 1.6 µg/mL: MIC (Enterococcus faecalis [5]) | MIC (Escherichia coli [6]) | MIC (Escherichia coli [7]) | MIC (Staphylococcus aureus [8])

CCCCCCCCCCCCCCn1nnc(-c2n[nH]c(=S)n2-c2ccccc2)c1-c1n[nH]c(=S)n1-c1ccccc1
2 µg/mL: MIC (Proteus mirabilis) | MIC (Staphylococcus aureus [1]) | MIC (Escherichia coli [2]) | MIC (Candida albicans) | MIC (Enterococcus faecalis [3]) | MIC (Pseudomonas aeruginosa [4]) | MIC (Aspergillus brasiliensis) | MIC (Bacillus cereus)

NS(=O)(=O)c1ccc(-n2cc(COc3cccc4cccnc34)nn2)cc1
106 µg/mL: IC50 (Enterococcus faecalis [9]) | IC50 (Escherichia coli [10]) | IC50 (Salmonella enterica) | IC50 (Klebsiella pneumoniae) | IC50 (Streptococcus pneumoniae) | IC50 (Pseudomonas aeruginosa [11])

NC1CCN(c2c(Cl)c3c(c(=O)c(C(=O)O)cn3C3CC3)c3[nH]nnc23)C1 (configuration not stated)
0.05 µg/mL: MIC (Pseudomonas aeruginosa [12]) | MIC (Staphylococcus aureus [13]) | MIC (Escherichia coli [14])

CCCCCCCCCCCCn1nnc(-c2n[nH]c(=S)n2-c2ccccc2)c1-c1n[nH]c(=S)n1-c1ccccc1
2 µg/mL: MIC (Proteus mirabilis) | MIC (Staphylococcus aureus [1]) | MIC (Escherichia coli [2]) | MIC (Candida albicans) | MIC (Enterococcus faecalis [3]) | MIC (Pseudomonas aeruginosa [4]) | MIC (Aspergillus brasiliensis) | MIC (Bacillus cereus)

C[C@H](c1ccccc1)N(CC(N)=O)C(=O)CN(C(=O)CN(Cc1cn(CC2CCCCC2)n[n+]1C)C(=O)CN(C(=O)CN(C(=O)CN(Cc1cn(CC2CCCCC2)n[n+]1C)C(=O)CN(C(=O)CN(C(=O)CNCc1cn(CC2CCCCC2)n[n+]1C)[C@H](C)c1ccccc1)[C@H](C)c1ccccc1)[C@H](C)c1ccccc1)[C@H](C)c1ccccc1)[C@H](C)c1ccccc1
> 1.6 µg/mL: MIC (Enterococcus faecalis [5]) | MIC (Escherichia coli [6]) | MIC (Escherichia coli [7]) | MIC (Staphylococcus aureus [8])

GENTAMICIN
1.56 µg/mL: MIC (Staphylococcus aureus [15]) | MIC (Escherichia coli [16]) | MIC (Bacillus spizizenii) | MIC (Proteus vulgaris)

C[C@H](c1ccccc1)N(CC(N)=O)C(=O)CN(C(=O)CN(Cc1cn(Cc2ccccc2)n[n+]1C)C(=O)CN(C(=O)CN(C(=O)CN(Cc1cn(Cc2ccccc2)n[n+]1C)C(=O)CN(C(=O)CN(C(=O)CNCc1cn(Cc2ccccc2)n[n+]1C)[C@H](C)c1ccccc1)[C@H](C)c1ccccc1)[C@H](C)c1ccccc1)[C@H](C)c1ccccc1)[C@H](C)c1ccccc1
> 1.6 µg/mL: MIC (Enterococcus faecalis [5]) | MIC (Escherichia coli [6]) | MIC (Escherichia coli [7]) | MIC (Staphylococcus aureus [8])

C[C@H](c1ccccc1)N(CC(N)=O)C(=O)CN(C(=O)CN(Cc1cn(CC2CCCCC2)nn1)C(=O)CN(C(=O)CN(C(=O)CNCc1cn(CC2CCCCC2)nn1)[C@H](C)c1ccccc1)[C@H](C)c1ccccc1)[C@H](C)c1ccccc1
> 1.6 µg/mL: MIC (Enterococcus faecalis [5]) | MIC (Escherichia coli [6]) | MIC (Escherichia coli [7]) | MIC (Staphylococcus aureus [8])

c1ccc(-n2cc(COc3cccc4cccnc34)nn2)cc1
106 µg/mL: IC50 (Enterococcus faecalis [9]) | IC50 (Escherichia coli [10]) | IC50 (Salmonella enterica) | IC50 (Klebsiella pneumoniae) | IC50 (Streptococcus pneumoniae) | IC50 (Pseudomonas aeruginosa [11])

Fc1ccc(-n2cc(COc3cccc4cccnc34)nn2)cc1
106 µg/mL: IC50 (Enterococcus faecalis [9]) | IC50 (Escherichia coli [10]) | IC50 (Salmonella enterica) | IC50 (Klebsiella pneumoniae) | IC50 (Streptococcus pneumoniae) | IC50 (Pseudomonas aeruginosa [11])

NC1CCN(c2c(F)c3c(c(=O)c(C(=O)O)cn3C3CC3)c3[nH]nnc23)C1 (configuration not stated)
0.05 µg/mL: MIC (Pseudomonas aeruginosa [12]) | MIC (Staphylococcus aureus [13]) | MIC (Escherichia coli [14])

C[C@@H]1CN(c2c(F)c(N)c3c(=O)c(C(=O)O)cn(C4CC4)c3c2F)C[C@H](C)N1 [SPARFLOXACIN]
0.0125 µg/mL: MIC (Pseudomonas aeruginosa [12]) | MIC (Staphylococcus aureus [13]) | MIC (Escherichia coli [14])

CCCCCCCCn1nnc(-c2n[nH]c(=S)n2N)c1-c1n[nH]c(=S)n1N
1 µg/mL: MIC (Proteus mirabilis) | MIC (Staphylococcus aureus [1]) | MIC (Escherichia coli [2]) | MIC (Candida albicans) | MIC (Enterococcus faecalis [3]) | MIC (Pseudomonas aeruginosa [4]) | MIC (Aspergillus brasiliensis) | MIC (Bacillus cereus)
